The test system of series [1] is CD11c+ cells (dendritic cells). Briefly: Immunohistochemistry cell counts in skin biopsies, clinical psoriasis study. Format: in vivo, human. As for the experimental part: (§1) A multicenter, randomized, open-label, multiple oral dose outpatient study was done in patients with moderate to severe chronic plaque psoriasis. Patients received Compound 5021 mg or 35 mg orally twice daily (BID), 35 mg or 70 mg orally once per day (QD). Patients remained on study medication for a period of 12 weeks.
(§2) Tissue sections of skin biopsies were stained with hematoxylin (Fisher) and eosin (Shandon, Pittsburgh) and purified mouse anti-human mAbs to K16 (Sigma), CD3 (Becton Dickinson), CD11c (BD Pharmingen). Biotin-labeled horse anti-mouse antibody (Vector Laboratories) was amplified with avidin-biotin complex (Vector Laboratories) and developed with chromogen 3-amino-9-ethylcarbazole (Sigma Aldrich). Epidermal thickness measures were computed by using National Institutes of Health software (NIH IMAGE 6.1), and positive cells were counted manually by using computer-assisted image analysis.

The subject of series [2] is CD3+ cells. The series is described as above. The settings on record: week 12, patients receiving 70 mg once a day. Format: in vivo, human. The method, then:
as §1, §2

Series [3] deals with IL-23 p19. Kind of series: TaqMan RT-PCR gene expression in skin biopsies, clinical psoriasis study. Format: in vivo, human. The following applies: lesional psoriatic skin biopsies of patients, week 2 vs pre-treatment (wk0), oral dosing, normalized to hARP. The method, then: as §1
(§3) Lesional and nonlesional skin biopsies were collected from adults with chronic plaque-type psoriasis before and after treatment with Compound 50. The biopsies were processed using the QIAGEN RNeasy kit. Using a rotor-stator tissue homogenizer (saw-tooth rotor; PowerGen 700), frozen specimens were homogenized in buffer (RLT; QIAGEN) for 30-60 s and spun in a microcentrifuge for 3 min at room temperature to pellet debris. The supernatant was loaded onto a QIAGEN minicolumn and spun for 15s at high speed. A series of washes and DNase digestion was followed by final elution of RNA from the column. RNA was quantitated by UV spectrophotometry. The primers and probes for the TaqMan RT-PCR assays for IL-12/23 p40, IL-23 p19, and IL-10 were generated using the Primer Express algorithm version 1.0 from published sequences (National Center for Biotechnology Information). All primers and probes were synthesized by Applied Biosystems-PerkinElmer. RT-PCR reactions were performed according to the manufacturer's directions (EZ PCR Core Reagents; TaqMan and Applied Biosystems). The human acidic ribosomal protein gene (hARP), a housekeeping gene, was used to normalize each sample and each gene.
(§4) Gene expression levels at week 2 (wk2) were compared to pre-treatment levels in lesional psoriatic skin (wk0). […] In the same biopsy samples, an increase in mRNA IL-10, an anti-inflammatory cytokine, was observed (FIG. 1C).

For series [4], the system named is IL-10. The series is described as above. Format: in vivo, human. The following applies: lesional psoriatic skin biopsies of patients, week 2 vs pre-treatment (wk0), oral dosing. The method, then: as §1, §3, §4
The test system of series [5] is IL-12/23 p40. The description is as above. The following applies: lesional psoriatic skin biopsies of patients, week 2 vs pre-treatment (wk0), oral dosing, normalized to hARP. Format: in vivo, human. As for the experimental part:
as §1, §3, §4

Series [6] can be described thus: API-excipient compatibility, 1 month at 40° C. and 60° C. The settings on record: for % Deg. w/Main peak: 1 month 40° C. The series is classed as physicochemical. As for the experimental part: For the pre-formulation work Compound 50 was mixed with varying ratios of excipients commonly encountered in topical formulations.
The Compound 50 Pre-Formulation Studies began with the addition of each individual excipient to 500 mg of the Active Pharmaceutical Ingredient (API). Table I below explains the detail ratio between each excipient and API used for this study.
The samples, once prepared in scintillation vials, were kept at 40° C. and 60° C. for over one month. The samples were analyzed by the method (not validated) developed by the analytical support group.
The results in Tables III-V were analyzed with respect to Compound 50 standard to calculate % recovery of API in the presence of each excipient. […] Similar results in table V for samples 5-60° C., 6-60° C., 7-60° C., 8-60° C., 10-60° C., 17-60° C., and 18-60° C. were obtained which needs to be further analyzed.

Series [7] can be described thus: Water solubility (statement). Format: physicochemical.
Series [8] concerns CD83 and CD11c. The following applies: responders of Alefacept therapy; cited from earlier work.
Where [9] appears, read: week 12, patients receiving 70 mg once a day.

“Also recorded” adds a separate entry of the source.

As for `Cc1cccc(/C=N/Nc2cc(N3CCOCC3)nc(OCCc3ccccn3)n2)c1` [Compound 50, N-(3-Methyl-benzylidene)-N′-[6-morpholin-4-yl-2-(2-pyridin-2-yl-ethoxy)-pyrimidin-4-yl]-hydrazine], the “CD11c+ cells in epidermis count” value in series [1] (all nonresponders, week 12) is “no significant reduction”. The “decrease in CD11c+ cells in epidermis” value in series [1] (all responder patients (histological improvement at week 12)) is recorded as about 100%. Moreover, the “CD11c+ cells in dermis (CD11DER)” value in series [1] (setting [9]) is “significant but less pronounced decreases”. In series [1] (setting [9]), the “CD11c+ cells in epidermis (CD11EPI)” value was “marked decrease”. In series [2], the “CD3+ cells in dermis (CD3DER)” value is on record as “significant but less pronounced decreases”. Also, the “CD3+ cells in epidermis (CD3EPI)” value in series [2] is reported as “significant but less pronounced decreases”. In addition, the “IL-23 p19 gene expression” value in series [3] is on record as “reduced; also recorded: decrease”. In series [4], the “IL-10 mRNA” value is reported as “increase”. Further, the “IL-12/23 p40 gene expression” value in series [5] is on record as “reduced; also recorded: decrease”. Also, the “% Deg. w/Main peak” value in series [6] (with Methylparaben, 1st impurity peak RRT 0.52) is 0.34%; in series [6] (with Propylparaben, 1st impurity peak RRT 0.78) it was 8.96%. Moreover, the “w/Main Peak” value in series [6] (with Methylparaben, 1 month 60° C., impurity peak 0.51) was found to be 13.75%; in series [6] (with PEG-300, 1 month 60° C., impurity peak 0.60), 0.51%; in series [6] (with PEG-400, 1 month 60° C., impurity peak 0.60), 1.87%; in series [6] (with Polysorbate 80, 1 month 60° C., impurity peak 0.60), 1.30%; in series [6] (with Propylene Glycol, 1 month 60° C., impurity peak 0.60), 0.11%; in series [6] (with Propylparaben, 1 month 60° C., impurity peak 0.78), 6.37%. Besides, the “w/Main Peak” value in series [6] (with Sorbitan Monooleate, 1 month 60° C., impurity peak 0.59) is 8.25%. Besides, the water solubility entry in series [7] was “not water soluble”.
Take Alefacept: in series [8], the “CD83 and CD11c immunostaining” value is “decreases”.

(Values after patent US20110098267A1, “TOPICAL FORMULATIONS FOR THE TREATMENT OF PSORIASIS” (Synta Pharmaceuticals Corporation, priority 2008, published 2011).)
